What was measured:
Hepatotoxicity [1] = test system: Hepatotoxicity;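 for HepSE bilirubinemia: bilirubinemia hepatic side effect score drawn from the DILIps training data, a prediction system for drug-induced liver injury; call rule not given here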;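 for HepSE cholecystitis: Cholecystitis-related hepatic side effect score drawn from the DILIps (drug-induced liver injury prediction) training data set; call rule not given here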;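 for HepSE cholelithiasis: hepatic side effect score for cholelithiasis, drawn from the DILIps training data for predicting drug-induced liver injury; call rule not given here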;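 for HepSE cirrhosis: cirrhosis hepatic side effect score taken from the DILIps (drug-induced liver injury prediction) training set; call rule not given here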;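 for HepSE elevated liver function tests: hepatic side effect score for raised liver function tests, as recorded in the DILIps training set used for predicting drug-induced liver injury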; for HepSE hepatic failure: call rule not given here;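 for HepSE hepatomegaly: hepatic side effect score for hepatomegaly, taken from the training set of the DILIps drug-induced liver injury prediction system; call rule not given here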
Hepatotoxicity [2] = test system: Hepatotoxicity; remark: listed apart in the source;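 for HepSE bilirubinemia: bilirubinemia hepatic side effect score drawn from the DILIps training data, a prediction system for drug-induced liver injury; call rule not given here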;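 for HepSE cholecystitis: Cholecystitis-related hepatic side effect score drawn from the DILIps (drug-induced liver injury prediction) training data set; call rule not given here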;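 for HepSE cholelithiasis: hepatic side effect score for cholelithiasis, drawn from the DILIps training data for predicting drug-induced liver injury; call rule not given here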;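 for HepSE cirrhosis: cirrhosis hepatic side effect score taken from the DILIps (drug-induced liver injury prediction) training set; call rule not given here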;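 for HepSE elevated liver function tests: hepatic side effect score for raised liver function tests, as recorded in the DILIps training set used for predicting drug-induced liver injury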; for HepSE hepatic failure: call rule not given here
Hepatotoxicity [3] = test system: Hepatotoxicity; remark: listed apart in the source;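 for HepSE bilirubinemia: bilirubinemia hepatic side effect score drawn from the DILIps training data, a prediction system for drug-induced liver injury; call rule not given here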;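 for HepSE cholecystitis: Cholecystitis-related hepatic side effect score drawn from the DILIps (drug-induced liver injury prediction) training data set; call rule not given here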;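 for HepSE cholelithiasis: hepatic side effect score for cholelithiasis, drawn from the DILIps training data for predicting drug-induced liver injury; call rule not given here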;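 for HepSE cirrhosis: cirrhosis hepatic side effect score taken from the DILIps (drug-induced liver injury prediction) training set; call rule not given here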;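 for HepSE elevated liver function tests: hepatic side effect score for raised liver function tests, as recorded in the DILIps training set used for predicting drug-induced liver injury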; for HepSE hepatic failure: call rule not given here
Hepatotoxicity [4] = test system: Hepatotoxicity; remark: listed apart in the source;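 for HepSE bilirubinemia: bilirubinemia hepatic side effect score drawn from the DILIps training data, a prediction system for drug-induced liver injury; call rule not given here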;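 for HepSE cholecystitis: Cholecystitis-related hepatic side effect score drawn from the DILIps (drug-induced liver injury prediction) training data set; call rule not given here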;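 for HepSE cholelithiasis: hepatic side effect score for cholelithiasis, drawn from the DILIps training data for predicting drug-induced liver injury; call rule not given here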;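 for HepSE cirrhosis: cirrhosis hepatic side effect score taken from the DILIps (drug-induced liver injury prediction) training set; call rule not given here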;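 for HepSE elevated liver function tests: hepatic side effect score for raised liver function tests, as recorded in the DILIps training set used for predicting drug-induced liver injury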; for HepSE hepatic failure: call rule not given here
Hepatotoxicity [5] = test system: Hepatotoxicity; remark: listed apart in the source; for HepSE hepatic failure: call rule not given here
Hepatotoxicity [6] = test system: Hepatotoxicity; remark: listed apart in the source; for HepSE hepatic failure: call rule not given here
Hepatotoxicity [7] = test system: Hepatotoxicity; remark: listed apart in the source
Hepatotoxicity [8] = test system: Hepatotoxicity; remark: listed apart in the source
Hepatotoxicity [9] = test system: Hepatotoxicity; remark: listed apart in the source
Hepatotoxicity [10] = test system: Hepatotoxicity; remark: listed apart in the source
Hepatotoxicity [11] = test system: Hepatotoxicity; remark: listed apart in the source
Hepatotoxicity [12] = test system: Hepatotoxicity; remark: listed apart in the source
Hepatotoxicity [13] = test system: Hepatotoxicity; remark: listed apart in the source
Hepatotoxicity [14] = test system: Hepatotoxicity; remark: listed apart in the source

| SMILES | HepSE_bilirubinemia (Hepatotoxicity [1]) | HepSE_cholecystitis (Hepatotoxicity [2]) | HepSE_cholelithiasis (Hepatotoxicity [3]) | HepSE_cirrhosis (Hepatotoxicity [4]) | HepSE_elevated liver function tests (Hepatotoxicity [5]) | HepSE_hepatic failure (Hepatotoxicity [6]) | HepSE_hepatic necrosis (Hepatotoxicity [7]) | HepSE_hepatitis (Hepatotoxicity [8]) | HepSE_hepatomegaly (Hepatotoxicity [9]) | HepSE_jaundice (Hepatotoxicity [10]) | HepSE_liver disease (Hepatotoxicity [11]) | HepSE_liver fatty (Hepatotoxicity [12]) | HepSE_liver function tests abnormal (Hepatotoxicity [13]) | HepSE_Combined Scores (Hepatotoxicity [14]) |
| --- | --- | --- | --- | --- | --- | --- | --- | --- | --- | --- | --- | --- | --- | --- |
| CCOC(=O)C1=C(COCCN)NC(C)=C(C(=O)OC)C1c1ccccc1Cl (stereo not drawn) [AMLODIPINE] | 0 | 0 | 0 | 0 | 0 | 0 | 0 | 1 | 0 | 1 | 0 | 0 | 0 | 2 |
| Cl.N [AMMONIUM CHLORIDE] | 0 | 0 | 0 | 0 | 0 | 0 | 0 | 0 | 0 | 0 | 0 | 0 | 0 | 0 |
| Clc1ccc2c(c1)C(N1CCNCC1)=Nc1ccccc1O2 [AMOXAPINE] | 0 | 0 | 0 | 0 | 0 | 0 | 0 | 1 | 0 | 1 | 0 | 0 | 0 | 2 |
| CC1(C)S[C@@H]2[C@H](NC(=O)[C@H](N)c3ccc(O)cc3)C(=O)N2[C@H]1C(=O)O [AMOXICILLIN] | 0 | 0 | 0 | 0 | 0 | 0 | 0 | 1 | 0 | 1 | 0 | 0 | 0 | 2 |
| CC(N)Cc1ccccc1 (stereo not drawn) [AMPHETAMINE] | 0 | 0 | 0 | 0 | 0 | 0 | 0 | 0 | 0 | 0 | 0 | 0 | 0 | 0 |
| C[C@@H]1[C@H](O)[C@@H](C)/C=C/C=C/C=C/C=C/C=C/C=C/C=C/[C@H](O[C@@H]2O[C@H](C)[C@@H](O)[C@H](N)[C@@H]2O)C[C@@H]2O[C@](O)(C[C@@H](O)C[C@@H](O)[C@H](O)CC[C@@H](O)C[C@@H](O)CC(=O)O[C@H]1C)C[C@H](O)[C@H]2C(=O)O [AMPHOTERICIN B] | 1 | 0 | 0 | 0 | 0 | 1 | 0 | 1 | 1 | 1 | 1 | 0 | 1 | 7 |
| CC1(C)S[C@@H]2[C@H](NC(=O)[C@H](N)c3ccccc3)C(=O)N2[C@H]1C(=O)O [AMPICILLIN] | 0 | 0 | 0 | 0 | 0 | 0 | 0 | 0 | 0 | 0 | 0 | 0 | 0 | 0 |
